Measured values published in patent US20250302913A1, “LACRIPEP PROMOTES NEUROREGENERATION AND MAINTAINS EPITHELIAL PROGENITOR CELL IDENTITY” (The Regents of The University of California, priority 2022, published 2025).

Legend:
Type in all cases: in vivo, mouse
Aire KO corneas [1] = assay: RNAseq of corneas at day 7 of treatment
Description: To identify potential downstream targets of lacripep treatment, we elucidated changes in corneal gene expression and signaling pathways at the day 7 time point through RNAseq. Principal component analysis (PCA) identified major transcriptional differences between each treatment group (FIG. 6A). […] Subsequent analysis yielded enriched gene sets that were highly associated with neuronal gene ontology (GO) terms e.g., synapse (P=3.6E-47), visual perception (P=5.8E-49), neuron projection (P=2.1E-29), and response to stimulus (P=1.8E-19) (FIG. 4C). These included cohorts of genes expressed by nerves and/or corneal epithelial cells involved in axonogenesis and axon guidance e.g., Neurod2, Cntn4, ephrins (Epha5, Epha7, Epha8) and semaphorins (Sema6a, Sema7a); synapse formation and function e.g., synaptic vesicle membrane proteins (Syt1; synaptophysin-Syp) and synaptic vesicle exocytosis regulators (Rims1, Rims2); neuronal signaling e.g., GABA receptors (Gabra2, Gabrr1), glutamate receptors (Gria2, Gria4), and G protein signal-transducing mediators (Gnb3, Gng4); and neurotransmitter transport e.g. glutamate transporters (Slc17a7) and GABA transporters (Slc6a1, Slc32a1) (FIG. 4D). Analysis of corneas treated with lacripep or PBS versus untreated corneas further emphasized the ability of lacripep and not PBS alone to induce transcription of neuronal gene sets (FIG. 6B).
Total RNA was collected at 7 days of treatment and purified using RNAaqueous and DNase reagents according to the manufacturer's instructions (Ambion, Houston, TX, USA). RNA quality was assessed using the Agilent 2100 BioAnalyzer, and samples with an RNA integrity ≥6.0 were included for RNA sequencing. The synthesis of mRNA libraries was performed by Novogene Corporation Inc. according to their protocols. RNA library was formed by ploy A capture (or rRNA removal), RNA fragmentation by covaris or enzyme digestion and reverse transcription of cDNA. Sequencing was performed as described below.
RNA libraries were sequenced on an Illumina NovaSeq 6000. Depths of 20-30 million 150 bp paired-end reads were generated for each sample. Quality control metrics were performed on raw sequencing reads using the FASTQC v0.11.9 application (76). Reads were mapped to the UCSC Mus musculus genome mm 10 (NCBI build v38) using Spliced Transcripts Alignment to a Reference (STAR) (77). At least 90% of the reads were successfully mapped. Reads aligning to the mm 10 build were quantified against Ensembl Transcripts release 93 using Partek® E/M (Partek's optimization of the expectation maximization algorithm, Partek Inc, St. Louis, MO, USA), which disregarded any reads that aligned to more than one location or more than one gene at a single location. […]

Aire KO corneas [2] = assay: Epithelial barrier function by lissamine green uptake
Description: (§1) As dry eye results in disruption of ocular surface integrity resulting in cornea barrier dysfunction and, consequently, fluid loss and pathogen invasion (11), we next determined whether lacripep maintains corneal epithelial architecture by analyzing lissamine green uptake at day 7 and 15. […] Restoration of barrier function was further confirmed by analyzing the superficial epithelial layers for the tight junction protein ZO1 which is essential to the structural integrity of the corneal epithelium (12).
Aire KO female mice aged 5 weeks were used for the study. All mice were topically treated with 5 μL per eye of 4 μM lacripep. Dosing was three times daily for 14 consecutive days. Lissamine green staining assessment and tear secretion assays were performed on each eye before treatment at baseline, 7 days and 14 days post treatment
After mice were anesthetized with isoflurane, 5 μL of lissamine green dye (1%) was applied to the lower conjunctival cul-de-sac. […] Lissamine green staining was scored by dividing the cornea into four quadrants, the extent of staining in each quadrant was classified as Grade 0, no staining; Grade 1, sporadic (<25%); Grade 2, diffuse punctate (25-75%), or Grade 3, coalesced punctate staining (75% or more). The total score was calculated separately for each eye and equaled the sum of all four quadrants ranging from 0 (no staining) to 12 (most severe staining). […]

ZO1 = assay: Immunofluorescent quantification of tight junction protein ZO1 in corneal epithelium; conditions: day 15; Aire KO cornea
Description: as §1
Immunohistological and immunofluorescent analyses of cornea and lacrimal gland samples were performed as previously described (8). […]
For immunofluorescent analysis, 7 or 20 μm tissue sections were incubated with the following primary antibodies: mouse anti-ZO1 conjugated to Alexa594 (1:1000, Life Technologies, Cat 339194), rabbit anti-KRT6A (1:800, Cell Signaling, Cat 4912S), chicken anti-KRT14 (1:1500, Santa Cruz, Cat 515882), rat anti-Ki67 (1:200, Biolegend, 652405), rat anti-CD4 (1:200, Santa Cruz), rabbit anti-TUBB3 (1:500, Cell Signaling, Cat 5568S), and rat anti-Ecadherin (1:300, Life Technologies, Cat 131900). Antibodies were detected using Cy2-, Cy3- or Cy5-conjugated secondary Fab fragment antibodies (Jackson Laboratories), and nuclei were stained with Hoechst 33342 (1:3000, Sigma-Aldrich). […]
Quantification of tight junction protein ZO1. […]

[3] = lacripep- versus PBS-treated corneas, Padj<0.05, 2-fold change cutoff

“Ac-KQFIENGSEFAQKLLKKFSLLKPWA-NH2 [lacripep, amino terminus acetylated, carboxyl terminus aminated]” was tested, and the “expression of inflammatory mediators (IL1b, interferon response genes)” value (Aire KO corneas [1]; across diseased corneas) was “expressed at similar levels in all diseased corneas”, the “expression of T cell markers, T cell response genes and macrophage markers” value (Aire KO corneas [1]; compared to WT controls) was “remained significantly elevated” and the genes downregulated (Aire KO corneas [1]; [3]) was 15 genes. The genes significantly upregulated (Aire KO corneas [1]; [3]) was 818 genes, the lissamine green uptake (Aire KO corneas [2]; day 7, compared to WT controls) was “increased lissamine green uptake compared to WT controls” and the “epithelial barrier function (lissamine green uptake)” value (Aire KO corneas [2]; day 15, uptake levels resembling WT corneas) was “significantly improved”. For the same substance, the “ZO1 expression in superficial epithelial layers” value (ZO1) was “mimicked that of WT controls”.
